Measured values taken from patent US20070135997A1, “Methods for analysis of biological dataset profiles” (priority 2003, published 2007).
“Also recorded” adds a separate entry of the source.

Test system: VCAM-1 expression in human umbilical vein endothelial cells (HUVEC)
Assay: Cell-based ELISA of VCAM-1 expression in cytokine-stimulated, gene-transduced endothelial cells
Text: Cytokines, antibodies, and cell culture. Recombinant human IFN-γ, TNF-α, and IL-1βwere from R&D Systems, Murine IgG from Sigma, Mouse anti-human ICAM-1 (clone B4H10) from Beckman Coulter and mouse anti-human E-selectin (clone ENA1) from HyCult Biotechnology. Unconjugated mouse antibodies against human VCAM-1 (clone 51-10C9), CD31 (clone WM-59), HLA-DR (clone G46-6), MIG (clone B8-77), and MCP-1 (clone 5D3-F7) were from BD Biosciences. Mouse anti-human IL-8 (clone 6217.111) was from R&D Systems. PD098059 was from Calbiochem. EGM-2 medium and required supplements were from Clonetics. Human umbilical vein endothelial cells (HUVEC) were from Clonetics; cultured in microtiter plates in EGM-2 medium containing manufacturer's supplements plus 2% heat-inactivated fetal bovine serum. […] PD098059 (3.7 μM final concentration) was added 1 hr before stimulation and was present during the whole 24 hr stimulation period.
Cell-based ELISAs. Cell-based ELISAs were carried out as previously described. Briefly, microtiter plates containing treated and stimulated HUVEC were blocked, and then incubated with primary antibodies or isotype control antibodies (0.01-0.5 μg/ml) for 1 hr. After washing, plates were then incubated with a peroxidase-conjugated anti-mouse IgG secondary antibody (Promega) for 1 hr. Plates were washed and developed with TMB substrate (Clinical Science Products) and the optical density (OD) was read at 450 nm (subtracting the background absorbance at 650 nm) on a SpectraMAX 190 plate reader (Molecular Devices).
Retroviral gene transduction. Test genes were cloned into a vector derived from the MoMLV-based vector pFB (Stratagene) downstream of the MoMLV LTR. A truncated form of the human nerve growth factor receptor (NGFR) preceded by an internal ribosomal entry site was used as a marker gene. Retroviral vector plasmid DNA was transfected into AmphoPack-293 cells (Clontech) by a modified calcium phosphate method according to the manufacturer's protocol (MBS transfection kit, Stratagene). Cell supernatants were harvested 48 hours post-transfection, filtered to remove cell debris (0.45 μm), and transferred onto exponentially growing HUVEC. DEAE dextran (10 μg/ml) was added to facilitate transduction. After 5-8 hr, the viral supernatant was removed and cells were cultured for an additional 40 hours. Gene transfer efficiency was determined by flow cytometric analysis using an NGFR-specific monoclonal antibody and was typically ≧70%.

Row | Compound | Effect on VCAM-1 expression when the RAS/MAPK pathway is activated (HUVEC over-expressing MYD88, RAS*, MEK1* or MEK2* or IL-1β-stimulated, PD098059 3.7 μM added 1 hr before 24 hr cytokine stimulation) | Effect on VCAM-1 expression in TNF-α-treated cells (HUVEC treated with TNF-α, PD098059 3.7 μM added 1 hr before 24 hr stimulation) | Effect of IL-1β on TNF-induced VCAM-1 expression (HUVEC stimulated with 10 ng/ml TNF + 1 ng/ml IL-1) | Effect of IL-1β on TNF-induced VCAM-1 expression (HUVEC stimulated with 10 ng/ml TNF + 1 ng/ml IL-1, listed as IL-1)
1 | COc1cccc(-c2cc(=O)c3ccccc3o2)c1N [PD098059] | reversed the effect of MYD88 or RAS* over-expression; also recorded: increases VCAM-1 expression | no effect |  | 
2 | IL-1β: Recombinant human IL-1β from R&D Systems, pro-inflammatory cytokine |  |  | reduce the level of VCAM-1 expression | modulates the VCAM-1 expression induced by TNF
